Measured values from patent US20050137252A1, “Production of dihydronepetalactone” (priority 2003, published 2005).

Tested on: Aedes aegypti mosquitoes
Experiment: in vitro Gupta box landing assay (insect repellency)
Details: 1% in IPA, 25 μl on Baudruche membrane over bovine blood at 37° C.; about 250 4-day-old female mosquitoes; probing recorded at 2 minute intervals over 20 minutes; mean of three replicates; compared with prior-art DHN materials
Protocol: The product of Example 1 is evaluated for insect repellency in a comparison test with DHN stereoisomers prepared according to prior-art methods, and against the major commercial insect repellent composition, DEET (N,N-diethyl-m-toluamide). As a control, neat iso-propanol (IPA) is employed as well. Repellency is determined against Aedes aegypti mosqutioes in the in vitro Gupta box landing assay. In this method a chamber contains 5 wells, each covered by a Baudruche (animal intestine) membrane. Each well is filled with bovine blood, containing sodium citrate (to prevent clotting) and ATP (72 mg ATP disodium salt per 26 ml of blood), and heated to 37° C. A volume of 25 μl of isopropyl alcohol (IPA) containing one test specimen or control is applied to each membrane. The concentrations are all 1% in IPA except where otherwise indicated. Controls are either neat IPA, an untreated membrane surface, or a membrane surface treated with a 1% solution of DEET. After 5 min, approximately 250 4-day-old female Aedes aegypti mosquitoes are introduced into the chamber. The number of mosquitoes probing the membranes for each treatment is recorded at 2 minute intervals over 20 minutes. Each datum represents the mean of three replicate experiments.

CC1COC(=O)C2C(C)CCC12 (single isomer, unassigned) [DHN Structure F]
repellent efficacy (mean number of landings over elapsed time, FIG. 3): compared well in repellent efficacy
